Reference: patent publication US20210329924A1, “METAL-BASED ANTIMICROBIAL COMPOSITION AND METHOD OF USING” (Microbonds Inc., priority 2020, published 2021)

How the values were obtained:
E. Coli (OD600 1.5) = experiment: Antimicrobial kill efficacy test on treated substrate (E. Coli); format: cell-based; conditions: 1 hr; for Efficacy test Pass: 20 C.
From the text: The 100000 ppm stock solution is subsequently diluted to the silver metal loading concentrations ranging from 3000 ppm down to 10 ppm, as shown in table 1 (the final usage concentration). The solutions are then applied onto a standard fabric substrate, such as white cotton textile and tested for various characteristics. The substrates, after being treated with the solution, are coated with standardized microbes, such as E. Coli or MRSA and tested for antimicrobial kill efficacy. The treated substrates are subjected to a wash test to determine if the silver metal still remains adhered to the fabric after multiple washes. For high silver metal ppm fabrics, it is easy to determine if the color of the stain fades or washes out over time. For low-ppm, non-stained items, the substrate is subjected to a digestion method to calculate the silver concentration per unit area after a number of washes to determine if the silver is remaining stable or is washing out.

MRSA (Staphylococcus) = experiment: Antimicrobial kill efficacy test on treated substrate (MRSA); format: cell-based; conditions: white cotton duvet, 60 C.-100 C., 1 hr
[1] = 10 ppm silver metal loading, white cotton fabric
[2] = 20 ppm silver metal loading, white cotton fabric
[3] = 100 ppm silver metal loading, white cotton fabric
[4] = 500 ppm silver metal loading, white cotton fabric
[5] = 1000 ppm silver metal loading, white cotton fabric

[Ag(NH3)2]-oxalate [Example 3]
Efficacy test Pass (E. Coli (OD600 1.5); [1]): No | Efficacy test Pass (E. Coli (OD600 1.5); [2]): Yes | Efficacy test Pass (E. Coli (OD600 1.5); [3]): Yes | Efficacy test Pass (E. Coli (OD600 1.5); [4]): Yes | Efficacy test Pass (E. Coli (OD600 1.5); [5]): Yes

[Ag(NH3)2]-formate [Example 5]
Efficacy test Pass (E. Coli (OD600 1.5); 10 ppm silver metal loading, dark Coolmax polyester fabric): No | Efficacy test Pass (E. Coli (OD600 1.5); 20 ppm silver metal loading, dark Coolmax polyester fabric): Yes | Efficacy test Pass (E. Coli (OD600 1.5); 100 ppm silver metal loading, dark Coolmax polyester fabric): Yes | Efficacy test Pass (E. Coli (OD600 1.5); 500 ppm silver metal loading, dark Coolmax polyester fabric): Yes | Efficacy test Pass (E. Coli (OD600 1.5); 1000 ppm silver metal loading, dark Coolmax polyester fabric): Yes

[Ag(NH3)2]-fluoride [Example 4]
Efficacy test Pass (E. Coli (OD600 1.5); 10 ppm silver metal loading, white Coolmax polyester fabric): No | Efficacy test Pass (E. Coli (OD600 1.5); 20 ppm silver metal loading, white Coolmax polyester fabric): Yes | Efficacy test Pass (E. Coli (OD600 1.5); 100 ppm silver metal loading, white Coolmax polyester fabric): Yes | Efficacy test Pass (E. Coli (OD600 1.5); 500 ppm silver metal loading, white Coolmax polyester fabric): Yes | Efficacy test Pass (E. Coli (OD600 1.5); 1000 ppm silver metal loading, white Coolmax polyester fabric): Yes | Efficacy test Pass (MRSA (Staphylococcus); 10 ppm copper metal loading): Yes | Efficacy test Pass (MRSA (Staphylococcus); 20 ppm copper metal loading): Yes | Efficacy test Pass (MRSA (Staphylococcus); 100 ppm copper metal loading): Yes | Efficacy test Pass (MRSA (Staphylococcus); 500 ppm copper metal loading): Yes | Efficacy test Pass (MRSA (Staphylococcus); 1000 ppm copper metal loading): Yes

[Ag(NH3)2]-carbonate [Example 1]
Efficacy test Pass? (E. Coli (OD600 1.5); [1]): No | Efficacy test Pass? (E. Coli (OD600 1.5); [2]): Yes | Efficacy test Pass? (E. Coli (OD600 1.5); [3]): Yes | Efficacy test Pass? (E. Coli (OD600 1.5); [4]): Yes | Efficacy test Pass? (E. Coli (OD600 1.5); [5]): Yes

[Ag(NH3)2]-formate [Example 6]
Efficacy test Pass (E. Coli (OD600 1.5); 10 ppm silver metal loading, Substrate = Dark Coolmax polyester fabric / Hand (Example 6: on skin)): No | Efficacy test Pass (E. Coli (OD600 1.5); 20 ppm silver metal loading, Substrate = Dark Coolmax polyester fabric / Hand (Example 6: on skin)): Yes | Efficacy test Pass (E. Coli (OD600 1.5); 100 ppm silver metal loading, Substrate = Dark Coolmax polyester fabric / Hand (Example 6: on skin)): Yes | Efficacy test Pass (E. Coli (OD600 1.5); 500 ppm silver metal loading, Substrate = Dark Coolmax polyester fabric / Hand (Example 6: on skin)): Yes | Efficacy test Pass (E. Coli (OD600 1.5); 1000 ppm silver metal loading, Substrate = Dark Coolmax polyester fabric / Hand (Example 6: on skin)): Yes

[Cu(NH3)4(H2O)n]SO4 [Example 8]
Efficacy test Pass (MRSA (Staphylococcus); 10 ppm zinc metal loading): No | Efficacy test Pass (MRSA (Staphylococcus); 20 ppm zinc metal loading): Yes | Efficacy test Pass (MRSA (Staphylococcus); 100 ppm zinc metal loading): Yes | Efficacy test Pass (MRSA (Staphylococcus); 500 ppm zinc metal loading): Yes | Efficacy test Pass (MRSA (Staphylococcus); 1000 ppm zinc metal loading): Yes
